In test [1] the target is T1, GST-tagged full-length FAK enzyme (PTK2) (Homo sapiens, UniProt Q05397).
T1 construct: GST-tagged full-length FAK enzyme (PTK2, Invitrogen PV4085); GST; purchased Invitrogen PV4085
The experiment in a line: Biochemical Omnia Assay (FAK). As for the experimental part:
Biochemical Omnia Assay Protocol
The Omnia Assay (Invitrogen) has been optimized for GST-tagged full-length FAK enzyme (PTK2, Invitrogen PV4085).
All compound concentrations were assayed in duplicate. Initial compound dilutions were prepared at 100× concentration in 100% DMSO from a 10 mM stock solution. Compounds were further diluted 1:25 in assay buffer resulting in a 4× concentrated solution.
In running the assay, 5 μL of the above 4× concentrated compound solution (or 4% DMSO for positive controls) was added to the assay plate followed by 5 μL of a solution containing peptide (40 μM) and ATP (200 μM) in assay buffer. The reaction was initiated by the addition of 10 μL of FAK (50 nM) in assay buffer, or assay buffer alone for negative controls. The increase in fluorescence due to peptide phosphorylation was monitored continuously as a function of time using a Spectramax M5 plate reader (Molecular Devices) equipped with SoftMax Pro 5.2 software.
IC50 values were determined from the slopes of the linear progress curves by non-linear curve-fitting using GraphPad Prism 5 (GraphPad Software, Inc.).

The target of a further test is T2, FAK (Homo sapiens, UniProt Q05397).
T2 construct: endogenous in cells; host or cells: U87MG glioblastoma cells (ATCC HTB-14)
The experiment in a line: Cell-based capture ELISA for inhibition of FAK autophosphorylation [pY397] in U87MG cells. As for the experimental part:
Cell-Based Assays for Inhibition of FAK Autophosphorylation: MiaPaCa2 and U87MG
The ability of compounds to inhibit FAK autophosphorylation was determined in a cell-based capture ELISA assay using U87MG glioblastoma cells (ATCC, Cat # HTB-14) and the FAK [pY397]ELISA kit from Invitrogen (KHO0441). The assay determines the ability of compounds to block endogenous autophosphorylation of FAK stimulated by fibronectin. Cells plated on fibronectin coated 96-well plate were incubated with compounds at various concentrations in the complete growth medium for 2 h. Cell lysates were then prepared and FAK protein was captured onto a FAK antibody-coated 96-well ELISA plate. The phosphotyrosine content of FAK protein was then monitored by quantitation of degree of binding of an antibody that recognizes only the phosphorylated FAK at Y397 within the captured protein.
Reagents Provided in Biosource FAK [pY397]
Cultures of U87MG cells growing in MEM (Earles) containing non-essential amino acids, sodium pyruvate (1 mM), […] (1%) and 10% fetal bovine serum were detached by trypsin-EDTA and suspended in cell growth medium. Cells were then plated onto fibronectin (600 ng/well)-coated 96-well flat bottom plates at 1.7×10^4 cells per well in 60 uL cell growth medium and incubated overnight at 37° C. in a CO2 incubator.
Compound dilutions were prepared from 10 mM DMSO stocks by dilution in cell growth medium, the final concentration of DMSO in the assay being 0.6%. […] The cells were then incubated with compounds at 37° C. for 2 h. The medium was removed by aspiration and cells were lysed by addition of 20 uL of ice-cold cell lysis buffer per well. The plates were kept on ice for 20 min and 50 uL of standard diluent was added to each well. 50 uL of cell lysate from each well was transferred to respective wells in an assay plate and 50 uL of detection antibody was added to all wells except H1-H6 which were no antibody control wells. Capture assay plates were incubated overnight in a cold room.
Following incubation of the cell lysates and detection antibodies in the ELISA plate, the wells were washed 4 times with 120 uL of wash buffer (1×), then 100 uL of diluted HRP conjugated antibody (1:100 dil in diluent) was added to each well, and the plate was incubated at RT for 30 min. The wells were then washed for 4 times with 120 uL of wash buffer (1×) and 100 uL of chromogen was added to each well and incubated in the dark at RT for 5-10 min. 100 uL of stop solution was added to each well and the absorbance measured at 450 nm, 0.1 s.
Comparison of the assay signals obtained in the presence of compound with those of positive and negative controls (cells with no compound and no detection antibody being added), allows degree of inhibition of phospho-FAK [Y397] to be determined over a range of compound concentrations. […] The assay as described above was modified to determine the effect of inclusion of 50% (v/v) mouse or human plasma. In this assay, the compound plate was prepared as 2× concentration in 100 uL of 100% mouse or human plasma, and 60 uL of this was added to 60 uL of culture medium and incubated at 37° C. incubator for 2 h. The rest of the assay was carried out as described above.

Where [2] appears, read: mean IC50, [ATP] = 50uM, read-out: FAK Activity Biochemical OMNIA, [ATP] = 50uM.
The mark [3] stands for this setting: 50% (v/v) human plasma, mean IC50, read-out: FAK Activity Mechanistic (U87MG) HP.
[4] abbreviates: no plasma present, mean IC50, read-out: FAK Activity Mechanistic (U87MG) NP.
[5] abbreviates: 50% (v/v) mouse plasma, mean IC50, read-out: FAK Activity Mechanistic (U87MG) MP.
Where [6] appears, read: FAK Activity Mechanistic (U87MG) MP, 50% (v/v) mouse plasma, mean IC50.

Read-outs that look alike come from different tables or passages of the source.

T1 sequence (Q05397 whole entry): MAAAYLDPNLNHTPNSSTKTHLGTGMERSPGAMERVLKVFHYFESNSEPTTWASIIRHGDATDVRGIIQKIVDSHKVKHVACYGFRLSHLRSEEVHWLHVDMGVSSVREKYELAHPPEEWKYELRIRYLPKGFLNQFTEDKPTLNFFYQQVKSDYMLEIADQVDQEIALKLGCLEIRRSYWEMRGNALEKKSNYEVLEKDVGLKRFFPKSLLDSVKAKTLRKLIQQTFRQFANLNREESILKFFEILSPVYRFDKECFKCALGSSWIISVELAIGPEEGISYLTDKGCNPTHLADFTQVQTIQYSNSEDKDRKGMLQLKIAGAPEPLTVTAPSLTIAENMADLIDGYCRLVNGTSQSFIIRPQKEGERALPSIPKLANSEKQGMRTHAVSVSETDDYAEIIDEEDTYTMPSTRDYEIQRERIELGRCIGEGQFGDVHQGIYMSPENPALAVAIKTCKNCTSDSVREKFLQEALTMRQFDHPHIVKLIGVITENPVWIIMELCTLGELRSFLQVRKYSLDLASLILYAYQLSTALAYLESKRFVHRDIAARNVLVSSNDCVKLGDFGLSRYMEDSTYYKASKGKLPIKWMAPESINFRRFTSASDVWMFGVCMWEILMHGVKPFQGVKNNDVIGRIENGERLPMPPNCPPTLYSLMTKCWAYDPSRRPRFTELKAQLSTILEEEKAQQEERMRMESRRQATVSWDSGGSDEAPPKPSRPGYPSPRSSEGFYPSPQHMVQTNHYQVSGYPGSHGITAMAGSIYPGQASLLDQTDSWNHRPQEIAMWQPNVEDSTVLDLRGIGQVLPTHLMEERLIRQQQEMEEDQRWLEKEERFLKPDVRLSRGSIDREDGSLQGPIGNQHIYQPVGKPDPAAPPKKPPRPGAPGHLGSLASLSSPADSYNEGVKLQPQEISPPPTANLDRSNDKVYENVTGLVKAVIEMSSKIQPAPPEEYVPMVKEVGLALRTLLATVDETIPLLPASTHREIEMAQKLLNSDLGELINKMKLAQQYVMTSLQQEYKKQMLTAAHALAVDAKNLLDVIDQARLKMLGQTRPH
T2 sequence (Q05397 whole entry): as above

For the compound `CCOP1(=O)Cc2ccc(c(F)c2)Nc2ncc(C(F)(F)F)c(n2)Nc2ccc(nc2C(=O)NC)-c2cnn(c2)CCCCO1` (racemic) [Example 23], the IC50 (in test [1] (setting [2]); on FAK (setting [3]); on FAK (setting [4])) was < 400 nM throughout.
Take `CCOP1(=O)Cc2ccc(c(Cl)c2)Nc2ncc(C(F)(F)F)c(n2)Nc2ccc(nc2C(=O)NC)-c2cnn(c2)CCCO1` (racemic) [Example 24]: the IC50 in test [1] (setting [2]) was < 400 nM; on FAK (setting [3]) it was < 400 nM; at FAK (setting [4]), 400 to 4000 nM.
`CCOP1(=O)Cc2ccc(c(Cl)c2)Nc2ncc(C(F)(F)F)c(n2)Nc2ccc(nc2C(=O)NC)-c2cnn(c2)CCCCO1` (racemic) [Example 25]: the IC50 (in test [1]; on FAK (setting [3]); at FAK (setting [4])) was < 400 nM throughout.
Regarding `CCOP1(=O)Cc2ccc(c(OC)c2)Nc2ncc(C(F)(F)F)c(n2)Nc2ccc(cc2C(=O)NOC)-c2cnn(c2)CCCO1` (racemic) [Example 26], the IC50 was < 400 nM in test [1] (setting [2]), < 400 nM on FAK (setting [3]), 400 to 4000 nM on FAK (setting [5]) and < 400 nM on FAK (setting [4]).
With `CCOP1(=O)Cc2ccc(c(OC)c2)Nc2ncc(C(F)(F)F)c(n2)Nc2ccc(c(F)c2C(=O)NC)-c2cnn(c2)CCCO1` (racemic) [Example 27], the values for the IC50 (in test [1]; on FAK (setting [5]); on FAK (setting [4])) were < 400 nM, 400 to 4000 nM and < 400 nM, respectively.
Take `CCOP1(=O)Cc2ccc(c(OC)c2)Nc2ncc(C(F)(F)F)c(n2)Nc2ccc(c(Cl)c2C(=O)NC)-c2cnn(c2)CCCO1` (racemic) [Example 28]: the figures for the IC50 (in test [1]; at FAK (setting [5]); on FAK (setting [4])) were < 400 nM, > 4000 nM and 400 to 4000 nM, respectively.
The corresponding values for `CCOP1(=O)Cc2ccc(c(OC)c2)Nc2ncc(C(F)(F)F)c(n2)Nc2ccc(c(C)c2C(=O)NC)-c2cnn(c2)CCCO1` (racemic) [Example 29] are < 400 nM, > 4000 nM and 400 to 4000 nM.
The corresponding values for `CCOP1(=O)Cc2ccc(c(OC)c2)Nc2ncc(C(F)(F)F)c(n2)Nc2ccc(c(OC)c2C(=O)NC)-c2cnn(c2)CCCO1` (racemic) [Example 30] are < 400 nM, 400 to 4000 nM and < 400 nM.
Consider `CCOP1(=O)Cc2ccc(c(OC)c2)Nc2ncc(C(F)(F)F)c(n2)Nc2cc(F)c(c3c2C(=O)N(C)C3)-c2cnn(c2)CCCO1` (racemic) [Example 31], for which the IC50 (in test [1]; at FAK (setting [4])) was < 400 nM in each case.
`CCOP1(=O)Cc2ccc(c(Br)c2)Nc2ncc(C(F)(F)F)c(n2)Nc2ccc(nc2C(=O)NC)-c2cnn(c2)CCCO1` (racemic) [Example 32]: the IC50 (in test [1] (setting [2]); at FAK (setting [3]); at FAK (setting [4])) was < 400 nM each time.
Regarding `CCOP1(=O)Cc2ccc(c(C)c2)Nc2ncc(C(F)(F)F)c(n2)Nc2ccc(nc2C(=O)NC)-c2cnn(c2)CCCO1` (racemic) [Example 33], the IC50 (in test [1]; on FAK (setting [3]); at FAK (setting [4])) was < 400 nM each time.
`CCOP1(=O)Cc2ccc(c(OC)c2)Nc2ncc(C(F)(F)F)c(n2)Nc2ccc(nc2C(=O)NC)-c2cn(nc2C)CCCO1` (racemic) [Example 34]: the IC50 (in test [1] (setting [2]); on FAK (setting [3]); on FAK (setting [4])) was < 400 nM throughout.
Consider `CCOP1(=O)Cc2ccc(c(OC)c2)Nc2ncc(C(F)(F)F)c(n2)Nc2ccc(nc2C(=O)NC)-c2cnn(c2C)CCCO1` (racemic) [Example 35], for which the IC50 (in test [1] (setting [2]); at FAK (setting [3]); at FAK (setting [4])) was < 400 nM throughout.
With `CCOP1(=O)Cc2ccc(c(OC)c2)Nc2cc(c(C(F)(F)F)cn2)Nc2ccc(nc2C(=O)NC)-c2cnn(c2)CCCO1` (racemic) [Example 36], the IC50 in test [1] was < 400 nM; on FAK (setting [3]) it was < 400 nM; on FAK (setting [5]) it was 400 to 4000 nM; at FAK (setting [4]) it was < 400 nM.
As to `CCCP1(=O)Cc2ccc(c(OC)c2)Nc2ncc(C(F)(F)F)c(n2)Nc2ccc(nc2C(=O)NC)-c2cnn(c2)CCCO1` (racemic) [Example 37], the IC50 in test [1] (setting [2]) is < 400 nM; on FAK (setting [3]), < 400 nM; on FAK (setting [5]), 400 to 4000 nM; on FAK (setting [4]), < 400 nM.
`CCOP1(=O)Cc2ccc(c(OC)c2)Nc2ncc(C(F)(F)F)c(n2)Nc2ccc(nc2C(=O)NC)-c2cc(C(=O)O)n(c2)CCCO1` (racemic) [Example 39]: the IC50 in test [1] was < 400 nM; against FAK (setting [6]) it was > 4000 nM; at FAK (setting [4]) it was 400 to 4000 nM.
With `CCOP1(=O)Cc2ccc(c(OC)c2)Nc2ncc(C(F)(F)F)c(n2)Nc2ccc(nc2C(=O)NC)-c2cc(C(=O)N3CC(C)(O)C3)n(c2)CCCO1` (racemic) [Example 40], the values for the IC50 (in test [1]; against FAK (setting [6]); on FAK (setting [4])) were < 400 nM, 400 to 4000 nM and < 400 nM, respectively.
`CCOP1(=O)Cc2ccc(c(OC)c2)Nc2ncc(C(F)(F)F)c(n2)Nc2ccc(nc2C(=O)NC)-c2cc(C(=O)N(C)C)n(c2)CCCO1` (racemic) [Example 41]: the IC50 (in test [1]; on FAK (setting [3]); at FAK (setting [4])) was < 400 nM throughout.
Turning to `CCOP1(=O)Cc2ccc(c(OC)c2)Nc2ncc(C(F)(F)F)c(n2)Nc2ccc(nc2C(=O)NC)-c2cc(C(=O)NC)n(c2)CCCO1` (racemic) [Example 42], the IC50 in test [1] is < 400 nM; at FAK (setting [3]) it was < 400 nM; against FAK (setting [6]), 400 to 4000 nM; on FAK (setting [4]), < 400 nM.
For `CCOP1(=O)Cc2ccc(c(OC)c2)Nc2ncc(C(F)(F)F)c(n2)Nc2ccc(nc2C(=O)NC)-c2c(C)nn(c2C)CCCO1` (racemic) [Example 43], the IC50 in test [1] (setting [2]) is < 400 nM; at FAK (setting [3]), 400 to 4000 nM; at FAK (setting [4]) it was < 400 nM.
For the compound `CCOP1(=O)Cc2ccc(c(OC)c2)Nc2ncc(C(F)(F)F)c(n2)Nc2ccc(nc2C(=O)NC)-c2cnn(c2)CC2(COC2)CO1` (racemic) [Example 44], the IC50 (in test [1]; at FAK (setting [3]); on FAK (setting [4])) was < 400 nM each time.
Consider `CCNC(=O)c1nc2ccc1Nc1nc(ncc1C(F)(F)F)Nc1ccc(cc1OC)CP(=O)(OCC)OCC1(COC1)Cn1cc-2cn1` (racemic) [Example 45], for which the IC50 (in test [1]; at FAK (setting [3]); at FAK (setting [4])) was < 400 nM each time.
For the compound `CCOP1(=O)Cc2ccc(c(OC)c2)Nc2ncc(C(F)(F)F)c(n2)Nc2ccc(nc2C(=O)NOC)-c2cnn(c2)CCCO1` (racemic) [Example 46], the IC50 in test [1] is < 400 nM; on FAK (setting [3]), < 400 nM; at FAK (setting [5]), 400 to 4000 nM; on FAK (setting [4]) it was < 400 nM.
As for `CCOP1(=O)Cc2ccc(c(OC)c2)Nc2ncc(C(F)(F)F)c(n2)Nc2ccc(nc2C(=O)NC)-c2cnn(c2)CC(C)(C)CO1` (racemic) [Example 47], the IC50 (in test [1]; at FAK (setting [3]); on FAK (setting [4])) was < 400 nM throughout.

The values are drawn from US9133224B2, “Macrocyclic kinase inhibitors” (OSI Pharmaceuticals, LLC, priority 2010, dated 2015).
